Measurements as given in patent US11020378B2, “Compounds, compositions and methods for treating insulin resistance” (UNIVERSITE PARIS DESCARTES, priority 2017, dated 2021).

Assays:
HEK293T cells = experiment: Growth and survival of HEK293T cells (resazurin fluorescence, 72 h); assay type: cell-based; conditions: 0.1% or 10% serum
Method: In order to study the effect of the compound of Formula (Ia) on cell growth and survival, HEK293T cells were cultured for 72 h at different serum concentrations (0.1%, 1%, 10%), in the absence or presence of compounds of Formula (Ia) (50 or 100 μM). The fluorescence of the cells was measured before and after treatment using a reagent containing resazurin. Since the intensity of fluorescence is correlated with the number of living cells, cell growth is estimated by relating the fluorescence measured at 72 h of treatment to that measured at t0. The presence of serum promotes cell growth. Thus, after 72 h, an increase in the cell population of 7 times at 0.1% of serum and of 10 times at 1 or 10% of serum is observed.

[1] = Repeat-dose toxicity study in C57Bl/6J mice; assay type: in vivo
Method: A repeat-dose toxicity study was also conducted in C57Bl/6J mice (12 males, 8 weeks old). Mice were treated daily either by gavage with 30 mg/kg/day of compound of Formula (Ia) diluted in 0.5% carboxymethylcellulose; or by intraperitoneal injection with 30 mg/kg/day of compound of Formula (Ia) diluted in DMSO, or with DMSO alone, for a period of 15 days.

IR-Grb14 interaction = target: T1, IR-Grb14 interaction (Homo sapiens, UniProt P06213); experiment: IR-Luc/Grb14-YFP BRET technique in a cell-free system; assay type: binding
T1 construct: a vector encoding the insulin receptor fused to the luciferase (IR-Luc); made in house; host or cells: HEK293T (transfected); IR-Luc was partially purified on wheat germ lectin sepharose; Grb14-YFP was used as crude lysate
Method: Compounds according to the invention were experimentally assessed for their inhibitory effect on the IR-Grb14 interaction by a BRET technique in a cell-free system described briefly below.
On the one hand, HEK293T cells were transfected with a vector encoding the insulin receptor fused to the luciferase (IR-Luc). Before lysis, the cells transfected with IR-Luc were stimulated or not with 100 nM insulin for 10 minutes. The IR-Luc lysates were recovered and then purified on sepharose beads coupled with wheat germ lectin (WGL for Wheat Germ Lectin). The IR-Luc receptors were then eluted and then frozen in liquid nitrogen before being stored at −80° C. On the other hand, HEK293T cells were transfected either with a vector encoding the Grb14 protein fused to the YFP (Grb14-YFP), or with the empty plasmid pcDNA3. The cells transfected with Grb14-YFP or with the empty plasmid pcDNA3 were lysed 48 h after transfection. After centrifugation, the lysates are recovered and frozen at −80° C.
The insulin receptors (IR-Luc) partially purified from cells stimulated or not with insulin were incubated for 20 minutes with the inhibitor compounds according to the invention suspended in DMSO. The cellular extracts from cells transfected with Grb14-YFP (or the empty plasmid pcDNA3) were then added and then after 40 minutes of incubation, coelenterazine was added and BRET reading was initiated. The results are expressed as a percentage of the BRET signal obtained in the presence of the molecules tested compared to the BRET signal of the DMSO control.

[2] = tested on: PEPCK and G6Pase expression; experiment: Expression of neoglucogenesis genes in hepatocytes in primary culture (RT-qPCR); assay type: cell-based, mice; conditions: 50 μM; glucagon 10 nM; absence of insulin; 8 h
Method: FIG. 6, the effect of the compound of Formula (Ia) according to the invention (black bars) on the expression of insulin target genes, PEPCK (FIG. 6A) and G6Pase (FIG. 6B), involved in the neoglucogenesis pathway. Hepatocytes in primary culture are cultured for 8 h in the presence of compounds of Formula (Ia) (50 μM), insulin (1 nM) and glucagon (pre-incubation 1 h at 10 nM). The relative quantification of mRNAs is performed by RT-qPCR. The values are related to the quantification of the 18S gene in the same sample in order to normalize the results. The results are the average of 3 to 5 independent experiments (*p<0.05, **p<0.01, by Anova followed by a Newman-Keuls test).
To study the inhibitory effect of insulin on neoglucogenesis gene expression, hepatocytes from mice in primary culture were pre-incubated with 10 nM glucagon.

T1 sequence (P06213 763-1382 limits assumed): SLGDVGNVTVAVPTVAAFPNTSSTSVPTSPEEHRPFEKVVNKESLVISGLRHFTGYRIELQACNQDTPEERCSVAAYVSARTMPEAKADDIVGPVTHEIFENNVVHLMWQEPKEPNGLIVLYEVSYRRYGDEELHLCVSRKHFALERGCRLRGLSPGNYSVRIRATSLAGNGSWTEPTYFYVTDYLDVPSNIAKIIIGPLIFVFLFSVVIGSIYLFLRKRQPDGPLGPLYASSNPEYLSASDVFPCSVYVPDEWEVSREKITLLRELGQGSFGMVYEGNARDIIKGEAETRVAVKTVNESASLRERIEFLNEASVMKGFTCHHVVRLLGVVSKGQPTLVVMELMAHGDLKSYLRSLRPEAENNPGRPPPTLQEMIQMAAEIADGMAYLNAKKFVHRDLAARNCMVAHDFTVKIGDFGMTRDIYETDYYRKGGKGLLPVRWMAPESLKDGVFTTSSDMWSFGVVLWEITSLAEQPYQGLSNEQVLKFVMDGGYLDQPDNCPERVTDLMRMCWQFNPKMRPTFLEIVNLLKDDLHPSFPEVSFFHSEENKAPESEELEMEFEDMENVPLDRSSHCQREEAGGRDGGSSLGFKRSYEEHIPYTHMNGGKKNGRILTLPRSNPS
T1 sequence (P06213 28-758 partner limits assumed): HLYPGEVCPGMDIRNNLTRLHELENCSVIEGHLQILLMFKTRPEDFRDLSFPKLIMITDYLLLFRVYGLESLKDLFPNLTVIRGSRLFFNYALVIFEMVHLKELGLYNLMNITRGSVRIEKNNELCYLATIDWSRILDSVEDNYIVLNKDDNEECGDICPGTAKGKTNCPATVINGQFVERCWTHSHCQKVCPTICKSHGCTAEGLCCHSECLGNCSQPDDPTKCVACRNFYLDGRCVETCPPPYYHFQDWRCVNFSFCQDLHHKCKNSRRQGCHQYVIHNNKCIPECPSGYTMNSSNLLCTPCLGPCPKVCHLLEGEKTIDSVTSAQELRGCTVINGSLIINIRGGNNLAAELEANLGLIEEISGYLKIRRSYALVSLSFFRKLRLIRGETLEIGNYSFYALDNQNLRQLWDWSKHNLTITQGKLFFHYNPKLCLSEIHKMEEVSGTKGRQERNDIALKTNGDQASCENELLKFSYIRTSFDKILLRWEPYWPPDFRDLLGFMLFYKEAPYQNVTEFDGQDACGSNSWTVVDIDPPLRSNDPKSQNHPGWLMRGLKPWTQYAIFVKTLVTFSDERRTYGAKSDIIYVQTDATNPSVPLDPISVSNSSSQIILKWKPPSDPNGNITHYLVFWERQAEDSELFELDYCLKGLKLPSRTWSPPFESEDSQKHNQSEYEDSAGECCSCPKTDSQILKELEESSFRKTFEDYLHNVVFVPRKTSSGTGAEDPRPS

Structure (SMILES): Cc1ccc(/C=C/C(=O)Nc2ccc(S(=O)(=O)Nc3onc(C)c3C)cc2)o1 [Ia]
- cell growth rate (HEK293T cells; 50 μM): does not alter
- cell growth rate (HEK293T cells; 100 μM): does not alter
- liver appearance ([1]; 30 mg/kg/day by gavage or intraperitoneal injection): no difference
- weight gain ([1]; 30 mg/kg/day by gavage or intraperitoneal injection, after 12 days of treatment): no difference
- blood glucose level measured in the post-absorptive state ([1]; 30 mg/kg/day, regardless of the administration mode): decrease
- toxic effect (overall conclusion) ([1]; HEK293T cells and repeat-dose mouse study): no detectable toxic effect
- remaining activity at 50 µM (IR-Grb14 interaction; 50 μM, insulin stimulation (100 nM), read-out: % BRET signal/DMSO control): 39%
- decrease in the BRET signal between the insulin receptor and the Grb14 protein (IR-Grb14 interaction; 50 μM, with insulin stimulation): 60%
- decrease in the BRET signal (IR-Grb14 interaction; in the absence of stimulation with insulin): 50%
- decrease in glucagon-induced G6Pase expression [2]: about 20%
- decrease in glucagon-induced PEPCK expression [2]: about 20%
